Assay results from the supplement of paper PMC10307832.

Columns and labels:
Assay in all cases: relative viability (nuclei count vs DMSO), 5 days (fraction); higher = more cells survive
[1] = compound: CC1=C(C(=NN1)C)CC2=C(C3=C(S2)N(C(=O)N(C3=O)C)CC(C)C)C(=O)N4C[C@@H](CO4)O + CS(=O)(=O)CCNCc1ccc(-c2ccc3ncnc(Nc4ccc(OCc5cccc(F)c5)c(Cl)c4)c3c2)o1 [Lapatinib] (partner 2 µM)
Outline: (§1)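 Nuclei were stained with Hoechst during a one-step fixation (final 0.05% Triton X-100, 1% formaldehyde, 1 ug/ml Hoechst) carried out 5 days after dosing, then counted on 4× images. The cells, lung cancer lines in 1536-well plates, had been dosed by pin tool the day after seeding with one drug alone or a fixed anchor-drug dose plus five library-drug doses (not always all listed) in √10 steps. Relative viability is the nuclei count in treated wells divided by that in vehicle wells, and each value is the median of duplicate plates.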

[2] = compound: CC1=C(C(=NN1)C)CC2=C(C3=C(S2)N(C(=O)N(C3=O)C)CC(C)C)C(=O)N4C[C@@H](CO4)O + CS(=O)(=O)N1CCN(Cc2cc3nc(-c4cccc5[nH]ncc45)nc(N4CCOCC4)c3s2)CC1 [Pictilisib] (partner 1 µM)
Outline: as §1

IDH-C35 + Lapatinib = compound: Cc1ccccc1C(C(=O)NC1CCCCC1)N(C(=O)Cn1ccnc1C)c1cccc(F)c1 [IDH-C35] + CS(=O)(=O)CCNCc1ccc(-c2ccc3ncnc(Nc4ccc(OCc5cccc(F)c5)c(Cl)c4)c3c2)o1 [Lapatinib] (partner 2 µM)
Outline: as §1

IDH-C35 + Alpelisib = compound: Cc1ccccc1C(C(=O)NC1CCCCC1)N(C(=O)Cn1ccnc1C)c1cccc(F)c1 [IDH-C35] + Cc1nc(NC(=O)N2CCC[C@H]2C(N)=O)sc1-c1ccnc(C(C)(C)C(F)(F)F)c1 [Alpelisib] (partner 2 µM)
Outline: as §1

| Cell Line | relative viability ([1]; first compound 0.0025 µM) | relative viability ([1]; first compound 0.007906 µM) | relative viability ([1]; first compound 0.025 µM) | relative viability ([1]; first compound 0.07906 µM) | relative viability ([1]; first compound 0.25 µM) | relative viability ([2]; first compound 0.0025 µM) | relative viability ([2]; first compound 0.007906 µM) | relative viability ([2]; first compound 0.025 µM) | relative viability ([2]; first compound 0.07906 µM) | relative viability ([2]; first compound 0.25 µM) | relative viability (IDH-C35 + Lapatinib; first compound 0.08 µM) | relative viability (IDH-C35 + Lapatinib; first compound 0.253 µM) | relative viability (IDH-C35 + Lapatinib; first compound 0.8 µM) | relative viability (IDH-C35 + Lapatinib; first compound 2.53 µM) | relative viability (IDH-C35 + Lapatinib; first compound 8 µM) | relative viability (IDH-C35 + Alpelisib; first compound 0.08 µM) | relative viability (IDH-C35 + Alpelisib; first compound 0.253 µM) | relative viability (IDH-C35 + Alpelisib; first compound 0.8 µM) | relative viability (IDH-C35 + Alpelisib; first compound 2.53 µM) | relative viability (IDH-C35 + Alpelisib; first compound 8 µM) |
| --- | --- | --- | --- | --- | --- | --- | --- | --- | --- | --- | --- | --- | --- | --- | --- | --- | --- | --- | --- | --- |
| HCC-44 | 1.01 | 1.1 | 0.988 | 0.908 | 1.11 | 0.615 | 0.689 | 0.616 | 0.6 | 0.616 | 0.946 | 1.02 | 0.979 | 1.04 | 1.02 | 0.821 | 0.764 | 0.737 | 0.827 | 0.763 |
| HCC-827 | 0.189 | 0.171 | 0.192 | 0.156 | 0.167 | 1.24 | 1.04 | 0.896 | 0.863 | 1.06 | 0.183 | 0.211 | 0.173 | 0.218 | 0.228 | 0.917 | 0.897 | 1.04 | 1 | 0.75 |
| NCI-H2347 | 0.993 | 0.956 | 0.86 | 0.964 | 1.09 | 0.905 | 0.909 | 0.507 | 0.836 | 0.547 | 0.99 | 0.969 | 0.914 | 0.902 | 0.804 | 1.14 | 1.12 | 1.03 | 1.16 | 1.03 |
| PC-14 | 0.373 | 0.413 | 0.32 | 0.32 | 0.359 | 0.737 | 1.01 | 0.805 | 0.767 | 0.842 | 0.361 | 0.304 | 0.316 | 0.363 | 0.423 | 1.02 | 0.956 | 0.959 | 0.927 | 0.758 |
| NCI-H1651 | 0.922 | 0.971 | 0.771 | 0.766 | 0.833 | 0.579 | 0.634 | 0.651 | 0.558 | 0.52 | 0.849 | 0.828 | 0.954 | 1 | 0.76 | 1.03 | 0.812 | 0.937 | 0.945 | 1 |
| HARA | 0.664 | 0.81 | 0.637 | 0.671 | 0.696 | 0.473 | 0.372 | 0.369 | 0.506 | 0.283 | 0.784 | 0.84 | 0.828 | 0.78 | 0.809 | 0.727 | 0.8 | 0.874 | 0.78 | 0.729 |
| NCI-H1650 | 0.954 | 1.12 | 0.875 | 0.881 | 0.926 | 0.575 | 0.587 | 0.714 | 0.67 | 0.708 | 0.785 | 0.835 | 0.692 | 0.285 | 0.664 | – | – | – | – | – |
| NCI-H1395 | 0.941 | 0.948 | 0.776 | 0.839 | 0.949 | 0.63 | 0.598 | 0.525 | 0.634 | 0.735 | 1 | 0.928 | 1.08 | 1.09 | 0.891 | 1.12 | 0.889 | 1.09 | 1.04 | 1.05 |
| LU99A | 1.22 | 0.982 | 0.9 | 0.975 | 1.11 | 0.351 | 0.314 | 0.331 | 0.345 | 0.327 | 1.08 | 0.909 | 0.938 | 0.984 | 1.12 | 0.49 | 0.514 | 0.553 | 0.517 | 0.562 |
| NCI-H1355 | 1.08 | 1.11 | 0.918 | 0.945 | 0.943 | 0.45 | 0.562 | 0.528 | 0.405 | 0.5 | 1.03 | 0.976 | 0.945 | 0.97 | 0.934 | 0.894 | 0.787 | 0.801 | 0.864 | 0.849 |
| HCC-78 | 0.92 | 0.691 | 0.738 | 0.577 | 0.733 | 0.217 | 0.218 | 0.172 | 0.169 | 0.194 | 1.02 | 0.732 | 0.841 | 0.606 | 0.355 | 0.361 | 0.323 | 0.322 | 0.397 | 0.331 |
| NCI-H1563 | 0.944 | 1.01 | 0.999 | 1.04 | 0.831 | 0.649 | 0.68 | 0.649 | 0.672 | 0.735 | 1.11 | 0.955 | 0.96 | 0.912 | 1.09 | 0.947 | 0.877 | 1.01 | 0.84 | 0.925 |
| HCC-15 | 0.941 | 0.814 | 0.786 | 0.82 | 0.899 | 0.76 | 0.911 | 0.846 | 0.782 | 0.856 | 0.892 | 0.776 | 0.931 | 0.776 | 0.781 | 0.904 | 0.844 | 0.822 | 0.854 | 0.852 |
| EKVX | 0.251 | 0.198 | 0.203 | 0.524 | 0.191 | 0.544 | 0.485 | 0.457 | 0.449 | 0.42 | 0.201 | 0.205 | 0.208 | 0.183 | 0.205 | 0.868 | 0.858 | 0.852 | 0.819 | 0.831 |
| LCLC-103H | – | – | – | – | – | 0.682 | 0.615 | 0.704 | 0.517 | 0.721 | – | – | – | – | – | 1.05 | 0.979 | 0.918 | 0.963 | 1.09 |
| ChaGo-K-1 | – | – | – | – | – | 0.794 | 0.608 | – | 1.01 | 1.04 | – | – | – | – | – | – | – | – | – | – |
| NCI-H441 | – | – | – | – | – | 0.575 | 0.446 | 0.431 | 0.616 | 0.656 | – | – | – | – | – | 0.649 | – | 0.688 | 0.684 | 0.754 |
